# Data taken from publication PMC12057357, “Population pharmacokinetics study on nebulized and intravenous administration of polymyxin B in patients with pneumonia caused by multidrug-resistant gram-negative bacteria” (Antimicrobial Agents and Chemotherapy, 2025).
# Bridge positions count the residues as written; N and C are the ends. Square brackets hold non-standard residues; d marks the D form. Peptide text beside a SMILES is read from it. * marks the point of attachment. X1 = CC[C@H](C)CCCCC(=O)*; Dab = NCC[C@H](N)C(=O)O
# Experiments:
# [1] = Population pharmacokinetic model of PMB in plasma and ELF of patients with MDR-GNB pneumonia; format: in vivo, human
# Method: This was a single-center, prospective study conducted between January 2022 and October 2024 at Fujian Medical University Union Hospital. […] Patients with severe bronchoconstriction, refractory hypoxemia, pregnancy, or those undergoing continuous renal replacement therapy were excluded.
# IV PMB was administered according to the manufacturer’s instructions: a loading dose of 100–150 mg ([…]) followed by maintenance doses of 40–75 mg every 12 h, with an infusion time of approximately 1 h. The decision to administer PMB and its dosing regimen was made by the medical team. Concurrently, selected patients received nebulized PMB at a dose of 25 mg dissolved in 5 mL of half-normal sterile water for injection every 12 h via vibration mesh nebulizer or jet nebulizer over 15 min. Eligible patients received nebulized PMB for 3 days for the treatment of pneumonia. During nebulization, ventilation was performed at a constant flow, targeting an inspiration-to-expiration ratio of 0.5. The respiratory rate was set at 18 breaths/min; the tidal volume was set at 8 mL/kg; and the positive end-expiratory pressure was set at 6 cmH2O.
# For all patients, when the PMB concentration in the plasma and lungs reached a steady state (after at least four doses), one to six samples were collected into EDTA tubes at the following time points: 0 h before administration and 1, 2, 4, 6, 8, and 12 h after administration. The plasma and bronchoalveolar lavage (BAL) fluid samples for drug assays were centrifuged at 12,000 rpm for 5 min. The supernatant was then collected and stored at −80°C until analysis.
# ELF is obtained through BAL. This procedure involves inserting and wedging a fiberoptic bronchoscope into a subsegment of the middle or lower lung lobe. Before performing BAL, the patient’s CT scan is reviewed to select the affected lung segment for lavage. The lavage is performed at the same location using a 0.9% saline solution. The aspirate from the first lavage is usually collected separately and discarded due to potential severe contamination with cells from the proximal airway. Subsequent recovered aspirates are combined, and their volume is measured and recorded. The remaining volume of BAL fluid is immediately centrifuged to separate the supernatant and the cell pellet. Samples used for measuring urea and drug concentrations in the supernatant are collected and frozen until analysis. The concentration of PMB in ELF can be determined using urea as an endogenous biomarker ([4], [8]). Urea concentration in plasma and ELF is typically the same because urea is […], has a low molecular weight, and can rapidly diffuse to establish equilibrium across the capillary-alveolar membrane. By measuring the urea concentration in both BAL fluid and plasma, the dilution factor can be determined, allowing for the calculation of the actual drug concentration in ELF (Eq.1):
# (1) CELF,PMB=CBAL, PMB×Cplasma,urea /CBAL,urea.
# As polymyxin B1 and B2 structures, molecular weights, pharmacological activities, and PK properties were […], their plasma concentrations were summed to obtain total PMB concentrations ([24]). Concentrations of PMB were determined by a validated liquid chromatography–tandem mass spectrometry assay with minor modifications ([25]). […] For plasma, intra- and interday accuracies ranged from 80.6% to 114.9%, with a coefficient of variation (CV) of 2.6%–14.8%. For BAL fluid, accuracy ranged from 82.3% to 114.3%, with a CV of 3.4%–13.7%. All sample concentrations exceeded the lower limit of quantification (LLOQ).
# PopPK analyses were conducted using a non-linear mixed-effect modeling program, NONMEM, version 7.5 (Icon Development Solutions, USA). Model development utilized first-order conditional estimation to assess the interaction between patient variability and residual variability. One- or two-compartment structural models were evaluated for both ELF and plasma drug exposure to establish the basic model that best fitted the original data. […]
# [2] = system: Pseudomonas aeruginosa (ATCC 27853, PAO1, and FADDI-PA022); details: cited from earlier work
# From the text: Monte Carlo simulations were used to determine the probability of target attainment (PTA), aiding in the selection of the optimal dosage regimen. According to consensus guidelines, the fAUC/MIC is the most relevant PK/PD index associated with bacterial killing ([11]). In this study, we evaluated the PTA of fAUC/MIC across different dosage regimens in cases of pathogenic infection with varying MIC values to better understand the optimal treatment approach. The preclinical data on PMB are limited, and its in vitro activities are similar to those of colistin ([11], [27]). […] Such high fAUC/MIC ...
# [3] = system: Acinetobacter baumannii (ATCC 19606, 248–01-C.248, and N-16870.213); details: cited from earlier work
# [4] = plasma; cited from earlier work
# From the text: Monte Carlo simulations were used to determine the probability of target attainment (PTA), aiding in the selection of the optimal dosage regimen. According to consensus guidelines, the fAUC/MIC is the most relevant PK/PD index associated with bacterial killing ([11]). In this study, we evaluated the PTA of fAUC/MIC across different dosage regimens in cases of pathogenic infection with varying MIC values to better understand the optimal treatment approach. The preclinical data on PMB are limited, and its in vitro activities are similar to those of colistin ([11], [27]). Consequently, some data ...
# [5] = cited from earlier work
# From the text: The issue of dosage adjustments based on renal function has been a contentious topic ...
# [6] = system: extensively drug-resistant GNB; details: cited from earlier work
# Method: While an IV loading dose enhances early plasma exposure of PMB, it has minimal impact on early ELF exposure. […] Currently, the dosing regimen for PMB nebulization in clinical practice is predominantly empirical, typically involving doses of 25 or 50 mg administered twice daily ([19][–][21]). In a PK analysis of 105 patients ...
# [7] = system: human alveolar epithelial A549 cells; design: method as in PMID 34228550, PMID 28416543; details: cited from earlier work
# Pseudomonas aeruginosa = system: Pseudomonas aeruginosa; design: method as in PMID 28031207; details: ELF; cited from earlier work
# [8] = bootstrap median, 1,000 resampled data sets
molecule,measurement,setting,value
"CC[C@H](C)CCCCC(=O)N[C@@H](CCN)C(=O)N[C@H](C(=O)N[C@@H](CCN)C(=O)N[C@H]1CCNC(=O)[C@H]([C@@H](C)O)NC(=O)[C@H](CCN)NC(=O)[C@H](CCN)NC(=O)[C@H](CC(C)C)NC(=O)[C@@H](Cc2ccccc2)NC(=O)[C@H](CCN)NC1=O)[C@@H](C)O [PMB, Polymyxin B] (X1-[Dab]T[Dab][Dab][Dab][dF]L[Dab][Dab]T; lactam 4-C)",AGE on V3 (covariate effect),[1]; [8],1.28
same,ALB on CL3 (covariate effect),[1]; [8],−0.894
same,"CL1, central compartment clearance of plasma",[1]; [8],1.39 L/h
same,"CL2, intercompartmental clearance of plasma",[1]; [8],13.1 L/h
same,"CL3, central compartment clearance of ELF",[1]; [8],0.186 L/h
same,"CL4, intercompartmental clearance of ELF",[1]; [8],3.44 L/h
same,"F, bioavailability of nebulization",[1]; [8],0.556
same,"Q, intercompartmental clearance between compartments 1 and 3",[1]; [8],0.03 L/h
same,"V1, central compartment distribution volume of plasma",[1]; [8],27.59 L
same,"V2, intercompartmental (peripheral) distribution volume of plasma",[1]; [8],17.11 L
same,"V3, central compartment distribution volume of ELF",[1]; [8],0.896 L
same,"V4, intercompartmental (peripheral) distribution volume of ELF",[1]; [8],4.33 L
same,"AUC24h, ELF","[1]; epithelial lining fluid, 76 patients, median (interquartile range), nebulized PMB 25 mg q12h alone or with IV PMB, LC-MS/MS, urea-corrected BAL",52.5 (35.3–102.8) mg·h/L
same,AGE on V3 (covariate effect),[1]; final PopPK model estimate,1.28
same,ALB on CL3 (covariate effect),[1]; final PopPK model estimate,−0.893
same,"CL2, intercompartmental clearance of plasma",[1]; final PopPK model estimate,13.11 L/h
same,"CL3, central compartment clearance of ELF",[1]; final PopPK model estimate,0.186 L/h
same,"CL4, intercompartmental clearance of ELF",[1]; final PopPK model estimate,3.44 L/h
same,"F, bioavailability of nebulization (fraction of drug reaching the lungs)",[1]; final PopPK model estimate,0.557
same,"Q, intercompartmental clearance between compartments 1 and 3 (plasma and ELF)",[1]; final PopPK model estimate,0.03 L/h
same,"V1, central compartment distribution volume of plasma",[1]; final PopPK model estimate,27.6 L
same,"V2, intercompartmental (peripheral) distribution volume of plasma",[1]; final PopPK model estimate,17.1 L
same,"V3, central compartment distribution volume of ELF",[1]; final PopPK model estimate,0.896 L
same,"V4, intercompartmental (peripheral) distribution volume of ELF",[1]; final PopPK model estimate,4.35 L
same,clearance,"[1]; human, plasma, final PopPK model estimate, NONMEM, 76 patients, steady state, read-out: CL1, central compartment clearance of plasma (converted)",23.2 mL/min
same,"AUC24h, plasma","[1]; plasma, median (interquartile range), nebulized PMB alone or with IV PMB, LC-MS/MS",35.0 (22.0–54.2) mg·h/L
same,AUC/MIC targets in ELF associated with antibacterial activity,[2],"1,326 to 1,506"
same,AUC/MIC targets in ELF associated with antibacterial activity,[3],326 to 989
same,unbound fraction,[4],0.42
same,average urine recovery rate,[5],23.56%
same,CL1,[5]; range across previous PMB two-compartment models,1.19 to 2.63 L/h
same,CL2,[5]; range across previous studies,1.98 to 13.83 L/h
same,V1,[5]; range across previous studies,6.35 to 33.77 L
same,V2,[5]; range across previous studies,7.92 to 78.2 L
same,urinary recovery rate,"[5]; range, ref 39 (Sandri et al.)",0.98% to 17.4%
same,"bacterial clearance time, inhalation group vs IV group",[6]; P = 0.002,significantly shorter
same,"risk of acute kidney injury, inhalation group vs IV group",[6]; P = 0.025,trend toward a reduced risk
same,effect on human alveolar epithelial A549 cells,[7],"disrupt redox balance, mitochondrial beta-oxidation, and membrane lipid biosynthesis"
colistin,fAUCELF/MIC targets,Pseudomonas aeruginosa,"684–1,050"
